Experimental findings from the SangsterLogP compilation are described below.

Data set [1] can be described thus: method code SF-AS, from DOI: 10.1016/0005-2736(69)90054-6, PMID: 5349616. The following applies: pH 7.4.
Data set [2] in a line: method code SF-HPLC, from DOI: 10.1021/jm9509197, PMID: 8648601. The following applies: pH 7.4.
The nature of data set [3]: method code SF-HPLC, from DOI: 10.1161/01.res.55.4.513, PMID: 6478555.
Data set [4] can be described thus: method code SF-AS, from DOI: 10.1111/j.2042-7158.1980.tb13082.x, PMID: 6110743.
Data set [5] can be described thus: method code SF-AS, from DOI: 10.1016/0021-9673(91)80064-n.
Data set [6] in a line: method code SF-NMR, from DOI: 10.1016/j.jpba.2012.12.010, PMID: 23298914.
Test in data set [7]: not given
This is another data set of the same source.

Data set [8] is described as follows: method code SF, from DOI: 10.1021/js9700917, PMID: 9452977. As to conditions: pH 5.5.
Data set [9] can be described thus: method code SF, from DOI: 10.1016/s0378-5173(98)00231-2.
A short description of data set [10]: method code SF-GLC, from DOI: 10.1007/bf00212402, PMID: 7663085.
Test in data set [11]: not given
This is another data set of the same source.

Data set [12] can be described thus: method code SF-HPLC, from DOI: 10.1177/074823378700300403, PMID: 3433285.
Data set [13] in a line: method code SF-AS/HPLC, from Ellington, J. J. (1988). Octanol/water partition coefficients for evaluation of hazardous waste land disposal: Selected chemicals. US Environmental Protection Agency, Environmental Research ….
Test in data set [14]: not given
This is another data set of the same source.

Data set [15] can be described thus: method code SF, from DOI: 10.1248/yakushi1947.93.11_1452, PMID: 4273378.
Data set [16] in a line: method code SF-AS, from DOI: 10.1248/cpb.15.1705, PMID: 5583828. As to conditions: pH 1.1.
Data set [17] is described as follows: method code SF-RC, from DOI: 10.1002/jlcr.2580210110. As to conditions: pH 7.4.
Test in data set [18]: not given
This is another data set of the same source.

Data set [19] can be described thus: method code SF-GLC, from DOI: 10.1021/es60128a001.
Data set [20] can be described thus: method code SF-AS, from DOI: 10.1021/bi00405a042.
Test in data set [21]: not given
The source holds these as a separate data set.

Test in data set [22]: not given
The source holds these as a separate data set.

Test in data set [23]: not given
This is another data set of the same source.

The nature of data set [24]: method code SF-GLC, from DOI: 10.1016/j.chemosphere.2005.05.003, PMID: 15967478.
Data set [25] in a line: method code SF-AS, from DOI: 10.1016/0006-2952(75)90156-2, PMID: 235934. The following applies: pH 7.4.
Test in data set [26]: not given
The source holds these as a separate data set.

Test in data set [27]: not given
The source holds these as a separate data set.

Test in data set [28]: not given
This is another data set of the same source.

Test in data set [29]: not given
The source holds these as a separate data set.

Test in data set [30]: not given
The source holds these as a separate data set.

Data set [31] can be described thus: method code SF, from DOI: 10.1016/0378-5173(86)90155-9. As to conditions: pH 7.0.
Test in data set [32]: not given
The source holds these as a separate data set.

A short description of data set [33]: method code SF-AS, from DOI: 10.1039/ft9959100995.

By logP is commonly meant the decadic logarithm of the partition coefficient of the neutral form, usually between octanol and water. With `FC(F)(F)C1(F)C(F)(F)C(F)(F)C(F)(N2C(F)(F)C(F)(F)C(F)(F)C(F)(F)C2(F)F)C(F)(F)C1(F)F` (stereo not drawn), the logP was determined as 7.

By logD is commonly meant lipophilicity at a set pH, counting ionised and neutral species. In the case of `Cc1cc2ccccc2n1C`, the logD in [1] worked out at 2.82.

`Nc1c2ncn(C3OC(CO)CC3F)c2nc[n+]1[O-]` (stereo not drawn): the logD in data set [2] is -0.98.

On to `CCNCC(=O)Nc1c(C)cccc1C`, for which, in data set [3], the logP was 1.32.

With `CCCCCOc1cccc(O)c1`, the logP in data set [4] stood at 3.63.

Molecule `C=CC(=O)NCCCN1CCOCC1` came in with a logP in data set [5] of -0.52.

Molecule `COC(=O)[C@@H](N)Cc1ccc(O)c(I)c1` registered a logD in data set [6] (pH 7.7) of 0.26.

For the molecule `c1ccc(Nc2ccc3ccccc3c2)cc1`, the logP in data set [7] was determined as 4.38.

In [8], `NS(=O)(=O)c1ncncc1-c1ccccc1` returned a logD of 0.5.

In turn, `OCCCCCCCc1ccccc1` came in with a logP in data set [9] of 3.59.

Consider `ClC1=C(Cl)C2(Cl)C3CC=CC3C1(Cl)C2(Cl)Cl` (stereo not drawn), for which, in data set [10], the logP was found to be 5.57.

`CC(C)(N)Cc1ccc(Cl)cc1` yielded a logP in data set [11] of 2.6.

As to `CCN(CC)C(=O)c1ccccc1C`, in data set [12], the log partition coefficient (logP) was 2.02.

As to `CC(C)N(C(=O)SC/C(Cl)=C/Cl)C(C)C`, the logP in [13] came to 4.49.

The molecule `C#CC(C)(C)NC(=O)c1cc(Cl)cc(Cl)c1` came in with a logP in data set [13] of 3.43.

`CC(C)(N)Cc1ccccc1` returned a logP in data set [11] of 1.9.

`O=[N+]([O-])c1ncnc2c1ncn2C1OC(CO)CC1F` (stereo not drawn) had a logD in data set [2] of -0.4.

Turning to `O=NN(CCCl)C(=O)NC1CCCC(O)C1` (stereo not drawn), in data set [14], the logP is 1.28.

Molecule `ClC1=C(Cl)C2(Cl)C3C(Cl)C(Cl)(Cl)CC3C1(Cl)C2(Cl)Cl` (stereo not drawn) gave a logP in data set [10] of 6.06.

In [7], `ClC1=C(Cl)C2(Cl)C3C4OC4C(Cl)C3C1(Cl)C2(Cl)Cl` (stereo not drawn) yielded a logP of 5.4.

`CCCCNC(=O)c1cccnc1` had a lipophilicity (logP) in [15] of 0.9.

In turn, `CCC1(CCC(C)C)C(=O)NC(=O)NC1=O` gave a logD in data set [16] of 2.07.

Regarding `COP(=S)(OC)SCn1nnc2ccccc2c1=O`, the logP in [12] stood at 2.43.

For the molecule `FC(F)(c1ccccc1)C(F)(F)c1ccccc1`, the logD in data set [17] is 5.

The molecule `OCCC(F)(F)C(F)(F)C(F)(F)C(F)(F)C(F)(F)C(F)(F)C(F)(F)C(F)(F)C(F)(F)C(F)(F)F` registered a logP in data set [18] of 7.57.

As for `c1ccc2c(c1)[nH]c1ccccc12`, the logD in data set [1] is 3.29.

In data set [19], `CCOP(=S)(OCC)SCn1c(=O)oc2cc(Cl)ccc21` showed a logP of 4.3.

`CC(=O)NCCc1ccccc1` registered a logP in [20] of 1.19.

In data set [21], `Cc1cn([C@H]2C[C@H](N=[N+]=[N-])[C@@H](CO)O2)c(=O)[nH]c1=O` gave a log partition coefficient (logP) of -0.09.

For `C=Cc1ccc(C=C)cc1`, the logP in data set [22] amounted to 3.2.

Consider `CCCCCCOC(=O)c1ccccc1C(=O)OCCCCCC`, for which, in data set [23], the logP amounted to 5.8.

In turn, `Cc1cccc(C)c1NC(=O)CN` registered a logP in data set [3] of 0.41.

In [24], `C=C1CCC2CC1C2(C)C` (stereo not drawn) yielded a logP of 4.43.

As for `CC(C)Oc1ccc([N+](=O)[O-])cc1`, the logD in [25] turned out to be 2.8.

In [23], `COC(=O)c1ccccc1C(=O)OC` returned a logP of 1.9.

Molecule `CNC(=O)N(C)c1nc2ccccc2s1` returned a logP in [26] of 2.38.

Regarding `Cc1cc(Cl)ccc1OCCCC(=O)O`, in [27], the logP was 3.28.

As for `OCCCCc1ccccc1`, the logP in [9] came to 2.33.

In the case of `CON=C(C#N)C(=O)N[C@@H](CCSC)C(=O)O`, the logP in data set [28] came to 0.86.

On to `CCSc1nnc(C(C)(C)C)c(=O)n1N`, for which the logP in data set [29] is 2.08.

With `C=CCC1(CC)C(=O)NC(=O)NC1=O`, the logD in data set [16] amounted to 0.95.

With `Nc1ccc2c(S(=O)(=O)O)cc(S(=O)(=O)O)cc2c1`, in data set [30], the logP was -1.6.

With `O=S(=O)(O)c1ccc(-c2ccc(S(=O)(=O)O)cc2)cc1`, the logP in data set [30] was 0.3.

`FC12CC3CC(CC(C3)C1)C2` displayed a logD in data set [17] of 5.7.

In data set [24], `C=C1C=CC(C(C)C)CC1` (stereo not drawn) registered a logP of 4.59.

In [20], `CC(=O)NCCc1c[nH]c2ccccc12` gave a logP of 1.41.

Regarding `C=CC(=O)NCCN1CCOCC1`, the logP in data set [5] is -0.55.

In [29], `CN(C(=O)NC(C)(C)c1ccccc1)c1ccccc1` yielded a logP of 3.01.

In turn, `O=NN(CCCl)C(=O)NC1CCCCC1O` (stereo not drawn) came in with a log partition coefficient (logP) in data set [14] of 1.6.

Molecule `FC1(F)C(F)(F)C(F)(F)C2(F)C(F)(F)C(F)(F)C(F)(F)C(F)(F)C2(F)C1(F)F` (stereo not drawn) came in with a logP of 6.

As to `O=C(NCc1ccc(O)cc1)c1ccccc1`, the logD in data set [31] amounted to 1.87.

In data set [26], `CCNc1nc(Cl)nc(NC(C)CC)n1` (stereo not drawn) had a logP of 3.02.

For the molecule `CCN(CC)C(=O)c1cccnc1`, the logP in data set [15] came out at 0.86.

Consider `CON=C(C#N)C(=O)NC(CCS(C)(=O)=O)C(=O)O` (stereo not drawn), for which, in data set [28], the logP is -0.52.

In [31], `CS(=O)CCCOc1ccc([N+](=O)[O-])cc1` (stereo not drawn) gave a logD of 0.93.

In data set [4], `CCCOc1cccc(O)c1` came in with a logP of 2.59.

For `CCOP(=S)(OCC)Oc1ccc(Cl)cc1Cl`, in data set [19], the logP turned out to be 5.14.

The molecule `Clc1cc2c(Cl)cc(Cl)c(Cl)c2c(Cl)c1Cl` showed a logP in data set [32] of 6.87.

In turn, `CC(=O)OC[C@H]1O[C@@H](n2cc(C)c(=O)[nH]c2=O)C[C@@H]1O` had a logP in [21] of -0.25.

`CC(=O)Nc1ncc2ncn(COCCO)c2n1` had a logP in data set [33] of -1.33.

`COC(=O)[C@@H](N)Cc1cc(I)c(O)c(I)c1` showed a logD in data set [6] (pH 6.7) of 0.95.

The molecule `O=C(C(=O)c1ccc(Cl)cc1)c1ccccc1` displayed a logP in data set [22] of 2.6.

In [25], `CCCCOc1ccc([N+](=O)[O-])cc1` had a logD of 3.5.

Molecule `OCCC(F)(F)C(F)(F)C(F)(F)C(F)(F)C(F)(F)C(F)(F)C(F)(F)C(F)(F)F` displayed a logP in [18] of 6.14.

Take `Cc1nc(NS(=O)(=O)c2ccc(N)cc2)oc1C`: the logD in data set [8] came out at 0.2.

In turn, `CC(=O)OCCOCn1cnc2c(=O)[nH]c(N)nc21` gave a logP in data set [33] of -1.07.

Take `Clc1cc2c(Cl)c(Cl)c(Cl)c(Cl)c2c(Cl)c1Cl`: in data set [32], the lipophilicity (logP) is 7.33.

`Cc1cc(Cl)ccc1OC(C)C(=O)O` (stereo not drawn): in [27], the logP turned out to be 2.95.
